Measured values reported in PubChem BioAssay AID328 (DTP/NCI, 2004).
Values joined by “and” are separate entries in the source; they are usually repeats but may differ in a detail not shown here. Identical values can stand only once. Toxic doses and inconclusive results are not listed. Rule for the calls: active = survival T/C of 150% or more; inactive = T/C below 125% in these data.

Test system: BDF1 mice, P388 leukemia ip, median survival T/C
Assay: NCI In Vivo Anticancer Drug Screen. Data for tumor model P388 Leukemia (intraperitoneal) in B6D2F1 (BDF1) mice
Conditions: endpoint: median survival time, higher = longer survival
Procedure, shortened: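 Survival ratio, drug arm over vehicle arm, in mice with a transplanted tumour.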

[1] = dose: 50.0 mg/kg/injection, schedule: Q01DX005 (ip), vehicle: saline
[2] = dose: 200.0 mg/kg/injection, schedule: Q01DX009 (ip), vehicle: saline with Tween-80
[3] = dose: 12.5 mg/kg/injection, schedule: Q01DX009 (ip), vehicle: saline with Tween-80
[4] = dose: 25.0 mg/kg/injection, schedule: Q01DX009 (ip), vehicle: saline with Tween-80
[5] = dose: 50.0 mg/kg/injection, schedule: Q01DX009 (ip), vehicle: saline with Tween-80
[6] = dose: 50.0 mg/kg/injection, schedule: Q04DX003 (ip), vehicle: saline with Tween-80
[7] = dose: 100.0 mg/kg/injection, schedule: Q04DX003 (ip), vehicle: saline with Tween-80
[8] = dose: 100.0 mg/kg/injection, schedule: Q01DX009 (ip), vehicle: saline with Tween-80
[9] = dose: 75.0 mg/kg/injection, schedule: Q01DX009 (ip), vehicle: saline with Tween-80
[10] = dose: 150.0 mg/kg/injection, schedule: Q01DX009 (ip), vehicle: saline with Tween-80
[11] = dose: 200.0 mg/kg/injection, schedule: Q04DX003 (ip), vehicle: saline with Tween-80

Measured: T/C

Nc1ccn[nH]1
inactive: dose: 100.0 mg/kg/injection, schedule: Q01DX009 (ip), vehicle: saline 100 % of control | dose: 100.0 mg/kg/injection, schedule: Q04DX003 (ip), vehicle: saline 100 % of control | dose: 200.0 mg/kg/injection, schedule: Q01DX009 (ip), vehicle: saline 100 % of control | dose: 200.0 mg/kg/injection, schedule: Q04DX003 (ip), vehicle: saline 109 % of control | dose: 400.0 mg/kg/injection, schedule: Q01DX009 (ip), vehicle: saline 118 % of control | dose: 400.0 mg/kg/injection, schedule: Q04DX003 (ip), vehicle: saline 122 % of control

CN(C)c1ccc(NC(=O)C(c2ccccc2)c2ccccc2)cc1
inactive: [1] 86 % of control | dose: 100.0 mg/kg/injection, schedule: Q01DX005 (ip), vehicle: saline 90 % of control | dose: 200.0 mg/kg/injection, schedule: Q01DX005 (ip), vehicle: saline 109 % of control

CCC(CO)NC(=O)/C=C/c1ccccc1Cl (configuration not stated)
inactive: [2] 91 % of control

O=[N+]([O-])c1ccc(Sc2ccccc2)c2nonc12
inactive: [3] 88 % of control | [4] 107 % of control | [5] 116 % of control

O=C1NNC(c2ccccc2)C1(Cl)Cl (configuration not stated)
inactive: [3] 114 % of control | [4] 99 % of control

N#CC1(Nc2ccccc2)CCCCC1
inactive: [4] 115 % of control | [6] 109 % of control | [7] 109 % of control

NC(=O)OCC#CCCl
inactive: [5] 100 % of control | [8] 98 % of control | [2] 96 % of control

O=C(/C=N/O)Nc1cc(Cl)c(Cl)cc1Cl
inactive: [5] 109 % of control | [6] 109 % of control | [9] 113 % of control | [8] 104 % of control | [7] 100 % of control | [10] 118 % of control | [11] 122 % of control

C1CCN(CC2CCCCN2)CC1 (configuration not stated)
inactive: dose: 25.0 mg/kg/injection, schedule: Q01DX009 (ip), vehicle: Klucel (hydroxypropylcellulose) (HPC) 100 % of control | dose: 25.0 mg/kg/injection, schedule: Q04DX003 (ip), vehicle: Klucel (hydroxypropylcellulose) (HPC) 105 % of control | dose: 50.0 mg/kg/injection, schedule: Q01DX009 (ip), vehicle: Klucel (hydroxypropylcellulose) (HPC) 100 % of control | dose: 50.0 mg/kg/injection, schedule: Q04DX003 (ip), vehicle: Klucel (hydroxypropylcellulose) (HPC) 100 % of control | dose: 100.0 mg/kg/injection, schedule: Q01DX009 (ip), vehicle: Klucel (hydroxypropylcellulose) (HPC) 90 % of control | dose: 100.0 mg/kg/injection, schedule: Q04DX003 (ip), vehicle: Klucel (hydroxypropylcellulose) (HPC) 110 % of control

O=C(O)CCc1c[nH]c2ccc(N(CCCl)CCCl)cc12
active: dose: 0.5 mg/kg/injection, schedule: Q04DX003 (ip), vehicle: saline with Tween-80 158 % of control | dose: 0.5 mg/kg/injection, schedule: Q04DX003 (ip), vehicle: saline 231 % of control | dose: 0.75 mg/kg/injection, schedule: Q04DX003 (ip), vehicle: saline with Tween-80 154 % of control
inactive: dose: 0.04 mg/kg/injection, schedule: Q04DX003 (ip), vehicle: saline with Tween-80 109 % of control | dose: 0.08 mg/kg/injection, schedule: Q04DX003 (ip), vehicle: saline with Tween-80 109 % of control | dose: 1.0 mg/kg/injection, schedule: Q04DX003 (ip), vehicle: saline 90 % of control

[NH-]C(CCC(N)=O)C(=O)O.[NH-]C(CCCCN)C(=O)O.[Zn+2] (configuration not stated)
inactive: [1] 106 % of control

CC[N+](CC)(CC)CC.N#C/C([SH2+])=C(/[SH2+])C#N.N#C/C([SH2+])=C(/[SH2+])C#N.[Fe+2]
inactive: dose: 1.56 mg/kg/injection, schedule: Q01DX009 (ip), vehicle: saline with Tween-80 105 % of control | dose: 3.12 mg/kg/injection, schedule: Q01DX009 (ip), vehicle: saline with Tween-80 110 % of control | dose: 3.5 mg/kg/injection, schedule: Q01DX001 (ip), vehicle: saline with Tween-80 100 % of control | dose: 6.25 mg/kg/injection, schedule: Q01DX009 (ip), vehicle: saline with Tween-80 110 % of control | dose: 7.0 mg/kg/injection, schedule: Q01DX001 (ip), vehicle: saline with Tween-80 95 % of control | dose: 9.2 mg/kg/injection, schedule: Q04DX003 (ip), vehicle: saline with Tween-80 100 % of control | dose: 14.0 mg/kg/injection, schedule: Q04DX003 (ip), vehicle: saline with Tween-80 95 % of control

O=C(Oc1ccccc1)c1cc(O)c(O)c(O)c1
active: dose: 400.0 mg/kg/injection, schedule: Q01DX005 (ip), vehicle: saline with Tween-80 154 % of control
inactive: dose: 50.0 mg/kg/injection, schedule: Q01DX005 (ip), vehicle: saline with Tween-80 100 % of control and 106 % of control | dose: 100.0 mg/kg/injection, schedule: Q01DX005 (ip), vehicle: saline with Tween-80 107 % of control and 115 % of control | dose: 200.0 mg/kg/injection, schedule: Q01DX005 (ip), vehicle: saline with Tween-80 105 % of control

Cc1nc(N)ncc1CCC1OCCO1
inactive: dose: 100.0 mg/kg/injection, schedule: Q01DX001 (ip), vehicle: saline 100 % of control | dose: 200.0 mg/kg/injection, schedule: Q01DX001 (ip), vehicle: saline 109 % of control | dose: 400.0 mg/kg/injection, schedule: Q01DX001 (ip), vehicle: saline 111 % of control

O=C(O)C(/C=N\Nc1ccccc1)=N\Nc1ccccc1
inactive: dose: 37.5 mg/kg/injection, schedule: Q01DX009 (ip), vehicle: saline with Tween-80 110 % of control | [9] 115 % of control | [10] 118 % of control

O=C(/C=C\c1ccccc1)/C=C/c1ccccc1
inactive: dose: 100.0 mg/kg/injection, schedule: Q04DX003 (sc), vehicle: olive oil, sesame oil, peanut oil 100 % of control | dose: 200.0 mg/kg/injection, schedule: Q04DX003 (sc), vehicle: olive oil, sesame oil, peanut oil 100 % of control | dose: 400.0 mg/kg/injection, schedule: Q04DX003 (sc), vehicle: olive oil, sesame oil, peanut oil 100 % of control

COc1cc(C(=O)N(CCCl)N=O)cc(OC)c1OC
inactive: dose: 25.0 mg/kg/injection, schedule: Q04DX003 (ip), vehicle: saline with Tween-80 100 % of control | [5] 100 % of control | [6] 100 % of control | [8] 100 % of control | [7] 100 % of control and 109 % of control | [2] 100 % of control | [11] 100 % of control | dose: 400.0 mg/kg/injection, schedule: Q04DX003 (ip), vehicle: saline with Tween-80 109 % of control

CN(C)CCCn1c(=O)c2ccccc2c2ccccc21
inactive: dose: 12.5 mg/kg/injection, schedule: Q01DX010 (ip), vehicle: saline 90 % of control | dose: 25.0 mg/kg/injection, schedule: Q01DX010 (ip), vehicle: saline 90 % of control | dose: 50.0 mg/kg/injection, schedule: Q01DX010 (ip), vehicle: saline 90 % of control

C(=N/Nc1ccccn1)/c1cccnc1
inactive: dose: 25.0 mg/kg/injection, schedule: Q01DX001 (ip), vehicle: saline with Tween-80 100 % of control | dose: 50.0 mg/kg/injection, schedule: Q01DX001 (ip), vehicle: saline with Tween-80 98 % of control | dose: 100.0 mg/kg/injection, schedule: Q01DX001 (ip), vehicle: saline with Tween-80 100 % of control

Clc1nc(Cl)c(Nc2ccn[nH]2)nc1Cl
inactive: [5] 100 % of control | [8] 95 % of control and 100 % of control | [2] 100 % of control | dose: 400.0 mg/kg/injection, schedule: Q01DX009 (ip), vehicle: saline with Tween-80 95 % of control

O=C(COc1ccc(Cl)cc1Cl)Oc1c(Cl)c(Cl)c(Cl)c(Cl)c1Cl
inactive: [6] 91 % of control | [7] 87 % of control

CC1CCC2=C(C1)S(=O)(=O)CC2 (configuration not stated)
inactive: dose: 6.25 mg/kg/injection, schedule: Q04DX002 (ip), vehicle: saline 103 % of control | dose: 12.5 mg/kg/injection, schedule: Q04DX002 (ip), vehicle: saline 94 % of control | dose: 25.0 mg/kg/injection, schedule: Q04DX002 (ip), vehicle: saline 103 % of control

O=C1C(N2CCOCC2)=C(N2CC2)C(=O)C(N2CCOCC2)=C1N1CC1
inactive: dose: 1.5 mg/kg/injection, schedule: Q01DX009 (ip), vehicle: saline 105 % of control | dose: 3.0 mg/kg/injection, schedule: Q01DX009 (ip), vehicle: saline 94 % of control | dose: 6.0 mg/kg/injection, schedule: Q01DX009 (ip), vehicle: saline 94 % of control
